Experimental data from publication PMC6788984, “High-potency ligands for DREADD imaging and activation in rodents and monkeys” (Nature Communications, 2019).
Several values for one entry are separate records, joined by “and”; a condition that tells them apart may be missing. Identical values can stand only once. Like-named read-outs stand apart in the source and are kept apart here.

Key:
[1] = target: T1, hM3Dq (Homo sapiens, UniProt P20309, A239G/Y149C); details: D1-hM3Dq mice, 0.01 to 1 mg kg-1
Text: (§2) Wild-type mice (C57BL/6J) were ordered from Jackson Laboratories and rats (Sprague–Dawley) were ordered from Charles River. Rodents were male and ordered at ~6 weeks of age. Transgenic mice were bred at NIDA breeding facility. […] Three male rhesus monkeys (Macaca mulatta) weighed 8–12 kg. All experiments and procedures complied with all relevant ethical regulations for animal testing and research and followed NIH guidelines and were approved by each institute’s animal care and use committees.
(§3) Ten minutes after injection, animals were placed in an open field arena (Opto-varimex ATM3, Columbus Instruments) and their locomotor activity was tracked during 60 min as infrared beam crossings and traveled distance was converted to cm. Animals were repeatedly tested on consecutive sessions (after an initial habituation session with no drug treatment) in a counterbalanced design.

[2] = target: T2, hM4Di (Homo sapiens, UniProt P08173, A203G/Y113C); test: [3H]clozapine competition binding, membranes of HEK-293 cells expressing hM4Di
T2 sequence (P08173 1-479 Y113C/A203G): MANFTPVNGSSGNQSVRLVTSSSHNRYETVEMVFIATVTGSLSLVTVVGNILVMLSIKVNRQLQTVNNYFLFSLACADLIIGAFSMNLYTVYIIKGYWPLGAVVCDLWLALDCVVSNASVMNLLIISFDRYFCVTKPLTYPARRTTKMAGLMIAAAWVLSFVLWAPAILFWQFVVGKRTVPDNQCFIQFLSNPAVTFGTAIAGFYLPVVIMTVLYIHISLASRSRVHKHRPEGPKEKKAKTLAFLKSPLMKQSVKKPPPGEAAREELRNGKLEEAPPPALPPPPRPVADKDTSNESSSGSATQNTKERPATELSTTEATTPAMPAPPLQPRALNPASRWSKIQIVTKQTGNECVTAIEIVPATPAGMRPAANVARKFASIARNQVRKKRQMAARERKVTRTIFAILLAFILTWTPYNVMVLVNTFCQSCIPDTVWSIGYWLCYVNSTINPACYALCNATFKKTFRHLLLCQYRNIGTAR
Protocol: (§4) Cells were routinely tested for myclopasma contamination (MycoAlert® Mycoplasma Detection Kit, Lonza). Cells were seeded on 60 cm^2 dishes at 4 × 10^6 cells/dish 24 h before transfection. The indicated amount of cDNA was transfected into HEK-293 cells using polyethylenimine (PEI; Sigma-Aldrich) in a 1–2 DNA:PEI ratio. Cell harvesting for radioligand binding experiments or signaling assays were performed approximately 48 h after transfection.
(§5) Cells were suspended in Tris-HCl 50 mM pH 7.4 supplemented with protease inhibitor cocktail (1:100, Sigma-Aldrich, St. Louis, MO, USA). The dissected brain tissue was diluted in Tris-HCl 50 mM buffer supplemented with protease inhibitor cocktail (1:1000). HEK-293 cells or brain tissue were disrupted with a Polytron homogenizer (Kinematica, Basel, Switzerland). Homogenates were centrifuged at 48,000g (50 min, 4 °C) and washed twice in the same conditions to isolate the membrane fraction. Protein was quantified by the bicinchoninic acid method (Pierce). […] In all cases, free and membrane-bound radioligand were separated by rapid filtration of 500-μl aliquots in a 96-well plate harvester (Brandel, Gaithersburg, MD, USA) and washed with 2 ml of ice-cold Tris-HCl buffer. […] One-site competition curves were fitted using Prism 7 (GraphPad Software, La Jolla, CA, USA). Ki values were calculated using the Cheng–Prusoff equation.

[3] = target: T1, hM3Dq; test: Intracellular Ca2+ assay (GCaMP6f) in HEK-293 cells transfected with hM3Dq; format: cell-based; set-up: host or cells: HEK-293; details: fluorescent assay in HEK-293 cells
Protocol: (§1) The indicated amount of cDNA was transfected into HEK-293 cells using polyethylenimine (PEI; Sigma-Aldrich) in a 1–2 DNA:PEI ratio. Cell harvesting for radioligand binding experiments or signaling assays were performed approximately 48 h after transfection.
Intracellular Ca^2+ concentration was monitored using the fluorescent Ca^2+ biosensor GCaMP6f. […] The net change in intracellular Ca^2+ concentration was expressed as F − F0 where F is the fluorescence at a given concentration of ligand and F0 is the average of the baseline values (fluorescence values of buffer-treated wells).

[4] = target: T1, hM3Dq; test: [3H]clozapine competition binding, membranes of HEK-293 cells expressing hM3Dq
Protocol: as §4, §5

[5] = target: T2, hM4Di; test: Locomotor activity in D1-hM4Di mice; details: for locomotor activity: D1-hM4Di mice, 0.01 to 1 mg kg-1
Text: as §2, §3

[6] = test system: WT mice; test: Locomotor activity in WT mice; details: WT mice; for locomotor activity: 0.01 to 1 mg kg-1
Text: as §2, §3

[7] = Brain and serum concentrations in mice after IP injection (LC-MS/MS); format: in vivo, mouse; details: 0.1 mg kg-1 IP; for Kp: C57BL/6J, mouse, brain/serum, ip, 0.1 mg kg-1, mice, read-out: brain/serum concentration ratio; for brain to serum concentration ratio / brain concentration, mean / serum concentration, mean: mice; for brain to serum concentration ratio: 30 min
Protocol: Monkey blood and CSF samples were collected from totally implanted subcutaneous access ports (Access Technologies, Virginia), connected to catheters indwelling in the femoral artery or intrathecal space of the spinal column, respectively. Rodent blood samples and brains were collected immediately following sacrifice at the indicated time points after intraperitoneal injection (10 ml kg^−1) in buffered saline. CSF was immediately frozen on dry ice and stored at −80 °C. Blood samples were allowed to coagulate for 15 min and then centrifuged at 4 °C for 15 min. Serum was collected from the supernatant and stored at a minimum of −30 °C until extraction. To 25 µl of serum, 5 µl of internal standard and 110 µl of methanol were added. Samples were centrifuged for 10 min at 16,200×g at 4 °C and the supernatant was transferred to the autosampler vial for analysis. Brains were cut in half and weighed prior to sample preparation. Half brains were homogenized in 490 µl of 85% ethanol: 15% water containing 0.1% formic acid and 5 µl of internal standard using a polytron homogenizer and centrifuged for 10 min at 16,200×g at 4 °C. A 300 µl of supernatant was dried under a stream of nitrogen and resuspended in 150 µl methanol. The resuspended solution was then centrifuged and 100 µl of supernatant was transferred to the autosampler vial for analysis.
Data were acquired using a Nexera XR HPLC (Shimadzu) coupled with a QTRAP 6500 (SCIEX), and was analyzed with Analyst 1.6 (SCIEX). The positive-ion mode data were obtained using multiple reaction monitoring (MRM). The instrumental source setting for curtain gas, ion spray voltage, temperature, ion source gas 1, and ion source gas 2 were 30 psi, 5500 V, 500 C, […], respectively.
Mobile phase A consisted of water containing 0.1% formic acid and mobile phase B was methanol containing 0.1% formic acid. […] The injection volume per sample was 10 μl. Samples were kept at 4 °C in the autosampler tray prior to injection.
The data were measured using standard curves and quality controls, but it was not validated to ICH guidelines. […] Quality control standards (low, middle and high) were prepared by adding the spiking standard to solution to 25 μl of serum and/or a half-brain and relative values are reported.

[8] = target: T2, hM4Di; test: BRET Galpha-o1 protein activation assay in HEK-293 cells transfected with hM4Di; format: cell-based; set-up: host or cells: HEK-293; details: BRET-based assay in HEK-293 cells
Protocol: as §1
BRET assays were performed to detect receptor ligand-induced Gαo1 protein activation. […] Forty-eight hour after transfection cells were harvested, washed and resuspended in phosphate-buffered saline (PBS). Approximately, 200,000 cells/well were distributed in 96-well plates, and 5 µM Coelenterazine H (substrate for luciferase) was added to each well. Five minutes after addition of Coelenterazine H, ligands were added to each well. […] Results were calculated for the BRET change (BRET ratio for the corresponding drug minus BRET ratio in the absence of the drug) 5 min after the addition of the ligands.

T1 sequence (P20309 whole entry Y149C/A239G): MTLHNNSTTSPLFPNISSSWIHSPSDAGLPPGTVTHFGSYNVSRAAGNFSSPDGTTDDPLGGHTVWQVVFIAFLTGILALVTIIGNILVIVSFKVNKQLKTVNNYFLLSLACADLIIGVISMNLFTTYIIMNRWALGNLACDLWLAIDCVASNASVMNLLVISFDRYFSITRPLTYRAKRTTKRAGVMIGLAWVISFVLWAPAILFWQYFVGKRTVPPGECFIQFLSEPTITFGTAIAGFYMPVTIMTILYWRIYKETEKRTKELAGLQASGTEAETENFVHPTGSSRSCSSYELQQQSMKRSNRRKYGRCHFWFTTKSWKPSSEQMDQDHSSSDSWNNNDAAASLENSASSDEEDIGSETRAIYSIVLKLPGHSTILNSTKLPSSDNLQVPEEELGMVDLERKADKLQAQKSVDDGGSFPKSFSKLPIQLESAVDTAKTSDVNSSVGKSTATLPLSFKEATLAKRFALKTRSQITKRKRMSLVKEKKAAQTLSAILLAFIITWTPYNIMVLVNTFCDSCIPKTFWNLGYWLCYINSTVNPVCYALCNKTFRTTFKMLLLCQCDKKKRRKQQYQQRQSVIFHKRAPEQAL

Row | SMILES | locomotor activity [1] | Ki [2] [nM] | EC50 [3] [nM] | Ki [4] [nM] | locomotor activity [5] | Locomotor activity, individual animals (Figure 3 Panel C) ([5]; dose 0.01) | Locomotor activity, individual animals (Figure 3 Panel C) ([5]; dose 0.1) | Locomotor activity, individual animals (Figure 3 Panel C) ([5]; dose 1) | locomotor activity [6] | Locomotor activity, individual animals (Figure 3 Panel A) ([6]; dose 0.01) | Locomotor activity, individual animals (Figure 3 Panel A) ([6]; dose 0.1) | Locomotor activity, individual animals (Figure 3 Panel A) ([6]; dose 1) | Kp ([7]; time 10) | Kp ([7]; time 30) | Kp ([7]; time 60) | Kp ([7]; time 120) | Kp ([7]; time 240) | brain to serum concentration ratio [7] | brain concentration, mean ([7]; time 10) | serum concentration, mean ([7]; time 10) | further results
1 | CCN1CCN(C2=Nc3cc(Cl)ccc3Nc3c(F)cccc32)CC1 [JHU37160, 8-Chloro-11-(4-ethylpiperazin-1-yl)-4-fluoro-5H-dibenzo[b,e][1,4]diazepine] | selectively inhibiting locomotor activity | 3.6 | 18.5 | 1.9 | selectively inhibiting locomotor activity | 87.297 and 55.7522 and 80.3935 and 127.49 and 164.341 and 150.985 and 118.596 and 28.6623 and 109.457 and 25.9025 and 156.84 | 22.2583 and 26.4102 and 36.6386 and 50.3064 and 38.3173 and 43.9761 and 103.495 and 48.2345 and 24.5922 and 6.944 and 42.5594 | 71.4509 and 37.5721 and 8.672 and 75.5783 and 18.1309 and 89.8357 and 75.9222 and 7.305 and 23.6013 and 9.934 and 15.3384 | without any significant locomotor effects | 15.4443 and 132.603 and 147.829 and 129.309 and 75.7603 and 45.5126 and 63.7894 and 145.958 and 96.1391 and 10.074 and 65.3531 and 48.0503 and 10.0356 and 25.3389 and 152.354 and 157.609 and 175.04 | 28.3765 and 136.794 and 39.0145 and 128.13 and 27.5178 and 138.037 and 95.0881 and 162.364 and 107.636 and 24.3135 and 117.274 and 117.261 and 37.3098 and 136.435 and 99.1126 and 117.312 and 123.413 | 10.497 and 121.35 and 79.3619 and 104.303 and 59.97 and 24.8262 and 41.2959 and 159.16 and 61.4696 and 5.601 and 141.242 and 63.7125 and 17.4822 and 64.5071 and 75.0041 and 144.933 and 145.945 | 6.45 | 8.48 | 12.9 | 9.72 | 15.4 | ~eightfold higher in the brain than serum | 15.2721 | 2.637 | improved affinity compared to C21 [2]: ~ 25 fold; brain concentration, mean ([7]; time 30): 9.242; serum concentration, mean ([7]; time 30): 1.58; brain concentration, mean ([7]; time 60): 8.73; serum concentration, mean ([7]; time 60): 0.7534; brain concentration, mean ([7]; time 120): 8.1596; serum concentration, mean ([7]; time 120): 0.8413; brain concentration, mean ([7]; time 240): 3.199; serum concentration, mean ([7]; time 240): 0.319; EC50 [8]: 0.2 nM
2 | CCN1CCN(C2=Nc3cc(Cl)ccc3Nc3cccc(F)c32)CC1 [JHU37152, 8-Chloro-11-(4-ethylpiperazin-1-yl)-1-fluoro-5H-dibenzo[b,e][1,4]diazepine] | selectively inhibiting locomotor activity | 8.7 | 5 | 1.8 | selectively inhibiting locomotor activity | 58.5024 and 108.441 and 109.915 and 131.721 and 115.402 and 75.1276 and 118.881 and 108.271 and 41.4007 | 72.1502 and 118.453 and 147.655 and 108.28 and 115.789 and 27.5857 and 55.2206 and 30.1649 and 43.619 | 21.6168 and 115.427 and 110.069 and 108.688 and 73.7541 and 20.9336 and 36.5894 and 6.171 and 23.7054 | without any significant locomotor effects | 95.2897 and 38.5088 and 39.3587 and 61.0726 and 69.3706 and 99.6544 and 90.1854 and 160.23 and 57.4795 and 29.9947 and 33.6903 and 133.302 and 88.2496 and 102.637 and 90.23 | 107.254 and 270.493 and 33.7361 and 22.8384 and 36.807 and 76.5906 and 34.7692 and 97.3133 and 74.027 and 53.9478 and 95.1236 and 125.045 and 39.4044 and 129.319 and 143.965 | 81.5049 and 96.9074 and 39.4517 and 156.512 and 62.1842 and 92.749 and 79.3711 and 129.761 and 80.0996 and 7.993 and 23.9209 and 25.8105 and 93.4157 and 30.5341 and 90.9279 | 3.52 | 6.76 | 5.99 | 4.52 | 3.05 | ~eightfold higher in the brain than serum | 58.5075 | 16.6091 | brain concentration, mean ([7]; time 30): 52.9484; serum concentration, mean ([7]; time 30): 6.63; brain concentration, mean ([7]; time 60): 40.9216; serum concentration, mean ([7]; time 60): 6.9214; brain concentration, mean ([7]; time 120): 7.985; serum concentration, mean ([7]; time 120): 2.387; brain concentration, mean ([7]; time 240): 2.907; serum concentration, mean ([7]; time 240): 1.533; EC50 [8]: 0.5 nM
